Results as given in patent publication US8026218B2, “Bifunctional analgesic compounds for opioid receptor agonists and neurokinin-1 receptor antagonists” (The University of Arizona, priority 2006, dated 2011).
Where two headings read alike, the source gives them in different places. Peptide text beside a SMILES is read from it.

What was measured:
[1] = target: T1, rat NK1 (rNK1) receptor (Rattus norvegicus, UniProt P14600); assay: Radioligand competition binding, [3H]substance P, rNK1/CHO membranes; settings: for IC50: LogIC50, rNK1, [3H]Substance P, logarithm of IC50 (negative)
T1 construct: expressed in transfected cells; host or cells: CHO (rNK-1/CHO cell line from Dr. James Krause)

[2] = target: T2, human NK1 receptor (hNK1) (Homo sapiens, UniProt P25103); assay: Radioligand competition binding, [3H]-Substance P, hNK1; settings: for Ki: read-out: Ki, hNK1
T2 construct: expressed in transfected cells

[3] = Octanol/saline distribution (logD7.4); type: physicochemical; settings: 0.05 N HEPES buffer in 0.1 N NaCl
Protocol: HEPES buffer (0.05 M HEPES buffer in 0.1 M NaCl, pH 7.4, 500 μL) was added to 2 mg of compound and mixed with 500 μL of 1-octanol. The sample was shaken at r.t. for 12 h to allow equilibrating. The sample was centrifuged at 6500 rpm in a VanGuard V6500 (GlaxoSmithKline, Research Triangle Park, N.C.) for 15 min. The layers were separated and each layer was centrifuged once again. The compound concentrations of obtained layers were analyzed by HPLC (30-70% of acetonitrile containing 0.1% TFA within 20 min and up to 95% within additional 5 min, 1 mL/min, 230 nm, Vydac 218TP104 C-18 column). The logarithm of 1-octanol/saline distribution (logD7.4) was calculated as the ratio of compound concentration in the 1-octanol and saline phases.
Octanol/saline distribution (logD7.4) (Yamamoto, 2007, J. Med. Chem., submitted). HEPES buffer (0.05 M HEPES buffer in 0.1 M NaCl, pH 7.4, 500 μL) was added to 2 mg of compound and mixed with 500 μL of 1-octanol. The sample was shaken at r.t. for 12 h to allow equilibrating. The sample was centrifuged at 6500 rpm in a VanGuard V6500 (GlaxoSmithKline, Research Triangle Park, N.C.) for 15 min. The layers were separated and each layer was centrifuged once again. The compound concentrations in the obtained layers were analyzed by HPLC (30-70% of acetonitrile containing 0.1% TFA within 20 min and up to 95% within additional 5 min, 1 mL/min, 230 nm, Vydac 218TP104 C-18 column). The logarithm of 1-octanol/saline distribution (logD7.4) was calculated as the ratio of compound concentration in the 1-octanol and saline phases.

[4] = target: T3, human δ opioid receptors (hDOR) (Homo sapiens, UniProt P41143); assay: Radioligand competition binding, [3H]DPDPE, hDOR membranes
T3 construct: expressed in transfected cells; host or cells: HN9.10 neuroblastoma cell line, pCDNA3, neomycin-selected clones

[5] = target: T4, rat μ opioid receptors (rMOR) (Rattus norvegicus, UniProt P33535); assay: Radioligand competition binding, [3H]DAMGO, rMOR membranes
T4 construct: expressed in transfected cells; host or cells: HN9.10 neuroblastoma cell line, pCDNA3, neomycin-selected clones

[6] = target: T3, human δ opioid receptors (hDOR); assay: [35S]GTP-γ-S binding assay, hDOR; type: biochemical
[7] = target: T4, rat μ opioid receptors (rMOR); assay: biochemical; type: biochemical
[8] = target: T5, δ opioid receptors (MVD) (Mus musculus, UniProt P32300); assay: Mouse isolated vas deferens (MVD) assay, opioid agonist
T5 construct: from tissue; host or cells: mouse (ICR) isolated vas deferens

[9] = tested on: μ opioid receptors (GPI); assay: Guinea pig isolated ileum (GPI) assay, opioid agonist;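 further: inhibition of electrically evoked contractions (0.1 Hz, 0.4 msec, supramaximal voltage) in organ baths at 37 °C, contraction height 3 min after each cumulative dose versus the 1 min before dosing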
[10] = target: T6, Substance P receptors (guinea pig NK1) (Cavia porcellus, UniProt P30547); assay: Guinea pig isolated ileum (GPI) assay with substance P stimulation in presence of 1 μM naloxone
T6 construct: from tissue; host or cells: guinea pig (Hartley) ileum LMMP, 1 μM naloxone present

[11] = In vitro stability in rat plasma at 37° C.; type: in vitro ADME; settings: rat, rat plasma, read-out: half life (T1/2) in rat plasma (converted)
Protocol: The derivative compounds were tested for their metabolite stability. The compounds were incubated in rat plasma at 37° C., and aliquots were withdrawn at various time points and analyzed by HPLC to determine the concentration of remaining compound derivatives (FIGS. 15-16, 36, and 47-48).
In Vitro Stability of compound derivatives in Rat Plasm (Yamamoto, 2007, J. Am. Chem. Soc. submitted). Stock solution of compounds (50 mg/mL in DMSO) were diluted 1000-fold into rat plasma (Lot 24927, Pel-Freez Biologicals, Rogers, Ak.) to result in an incubation concentration of 50 μg/mL. All samples were incubated at 37° C. for 6 h, and 200 μL of aliquots were withdrawn at 1 h, 2 h, 4 h and 6 h. […] The samples were run in triplicate. Discussion.

T1 sequence (P14600 whole entry): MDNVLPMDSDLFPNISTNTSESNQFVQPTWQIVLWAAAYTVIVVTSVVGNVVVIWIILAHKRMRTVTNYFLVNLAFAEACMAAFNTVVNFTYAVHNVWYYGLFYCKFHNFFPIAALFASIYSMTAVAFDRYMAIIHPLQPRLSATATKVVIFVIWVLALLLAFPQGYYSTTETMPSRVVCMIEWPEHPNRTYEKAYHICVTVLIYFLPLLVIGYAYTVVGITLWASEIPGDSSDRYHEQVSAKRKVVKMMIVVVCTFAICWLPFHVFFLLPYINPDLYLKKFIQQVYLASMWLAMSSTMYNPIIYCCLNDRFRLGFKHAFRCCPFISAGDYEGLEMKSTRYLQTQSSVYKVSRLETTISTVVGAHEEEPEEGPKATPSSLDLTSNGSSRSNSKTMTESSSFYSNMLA
T4 sequence (P33535 whole entry): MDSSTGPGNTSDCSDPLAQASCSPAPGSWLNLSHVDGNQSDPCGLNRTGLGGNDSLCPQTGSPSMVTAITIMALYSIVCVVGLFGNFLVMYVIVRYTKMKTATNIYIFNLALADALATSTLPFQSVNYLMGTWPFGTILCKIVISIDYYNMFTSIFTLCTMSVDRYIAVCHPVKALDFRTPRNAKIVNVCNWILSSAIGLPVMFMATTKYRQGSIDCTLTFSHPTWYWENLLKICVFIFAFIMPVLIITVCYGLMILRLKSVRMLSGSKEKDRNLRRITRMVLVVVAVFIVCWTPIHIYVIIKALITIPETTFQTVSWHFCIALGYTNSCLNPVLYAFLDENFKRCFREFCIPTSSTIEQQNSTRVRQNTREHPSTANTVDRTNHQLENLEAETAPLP
T3 sequence (P41143 whole entry): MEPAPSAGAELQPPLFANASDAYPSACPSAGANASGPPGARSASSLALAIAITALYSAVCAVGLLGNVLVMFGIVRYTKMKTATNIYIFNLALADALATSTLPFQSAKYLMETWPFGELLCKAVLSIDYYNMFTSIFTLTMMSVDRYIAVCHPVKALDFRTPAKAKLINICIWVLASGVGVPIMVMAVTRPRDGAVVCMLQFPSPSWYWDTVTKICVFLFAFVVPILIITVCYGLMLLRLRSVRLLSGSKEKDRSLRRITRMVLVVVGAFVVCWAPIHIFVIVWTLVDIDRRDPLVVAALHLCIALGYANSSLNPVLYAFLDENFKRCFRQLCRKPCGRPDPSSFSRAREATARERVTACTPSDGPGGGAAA
T2 sequence (P25103 whole entry): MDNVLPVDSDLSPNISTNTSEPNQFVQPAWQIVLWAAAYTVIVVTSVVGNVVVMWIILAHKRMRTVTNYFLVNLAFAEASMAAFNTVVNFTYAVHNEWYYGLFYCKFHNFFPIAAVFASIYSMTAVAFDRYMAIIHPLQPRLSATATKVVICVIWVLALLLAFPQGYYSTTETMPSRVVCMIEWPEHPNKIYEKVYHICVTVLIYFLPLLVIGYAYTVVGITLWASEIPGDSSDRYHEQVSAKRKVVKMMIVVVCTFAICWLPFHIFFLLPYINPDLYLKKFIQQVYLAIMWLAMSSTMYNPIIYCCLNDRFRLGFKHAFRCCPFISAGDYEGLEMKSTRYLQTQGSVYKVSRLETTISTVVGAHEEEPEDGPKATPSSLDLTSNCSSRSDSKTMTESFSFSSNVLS
T6 sequence (P30547 whole entry): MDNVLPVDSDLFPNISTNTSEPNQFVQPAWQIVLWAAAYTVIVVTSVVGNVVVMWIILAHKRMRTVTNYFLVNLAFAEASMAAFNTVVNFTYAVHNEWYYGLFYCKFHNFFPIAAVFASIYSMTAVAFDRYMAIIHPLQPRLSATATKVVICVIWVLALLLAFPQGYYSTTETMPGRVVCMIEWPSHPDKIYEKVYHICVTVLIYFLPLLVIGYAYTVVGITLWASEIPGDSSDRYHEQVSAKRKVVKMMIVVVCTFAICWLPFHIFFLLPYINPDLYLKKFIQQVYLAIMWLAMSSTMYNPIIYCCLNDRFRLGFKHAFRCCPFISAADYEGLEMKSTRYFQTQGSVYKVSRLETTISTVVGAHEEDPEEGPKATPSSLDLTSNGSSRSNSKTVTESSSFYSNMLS
T5 sequence (P32300 whole entry): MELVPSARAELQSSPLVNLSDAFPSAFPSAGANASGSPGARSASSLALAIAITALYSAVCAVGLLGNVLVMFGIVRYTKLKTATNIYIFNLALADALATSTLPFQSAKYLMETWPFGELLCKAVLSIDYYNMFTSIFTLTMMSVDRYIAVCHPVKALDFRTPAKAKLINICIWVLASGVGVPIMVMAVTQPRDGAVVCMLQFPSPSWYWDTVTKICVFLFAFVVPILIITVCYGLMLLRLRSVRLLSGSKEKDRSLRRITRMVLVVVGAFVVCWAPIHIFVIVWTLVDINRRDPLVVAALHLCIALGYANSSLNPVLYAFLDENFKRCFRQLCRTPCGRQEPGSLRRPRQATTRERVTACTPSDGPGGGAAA

## CC(C)C[C@H](NC(=O)[C@@H]1CCCN1C(=O)[C@H](Cc1ccccc1)NC(=O)CNC(=O)[C@@H](C)NC(=O)[C@@H](N)Cc1ccc(O)cc1)C(=O)N[C@@H](Cc1c[nH]c2ccccc12)C(=O)NCc1cc(C(F)(F)F)cc(C(F)(F)F)c1 [TY012, H-Tyr-D-Ala-Gly-Phe-Pro-Leu-Trp-NH-3,5-Bzl(CF3)2]
[1]; Table 6, CHO cell membranes
  IC50: 100 nM
[2]
  IC50: 1.26 nM
[3]
  logD7.4: >4

## CC(C)C[C@H](NC(=O)[C@@H]1CCCN1C(=O)[C@H](Cc1ccccc1)NC(=O)CNC(=O)[C@@H](C)NC(=O)[C@@H](N)Cc1ccc(O)cc1)C(=O)N[C@@H](Cc1c[nH]c2ccccc12)C(=O)OCc1ccccc1 [TY011, H-Tyr-DAla-Gly-Phe-Pro-Leu-Trp-O-Bzl]
[1]; Table 6, CHO cell membranes
  IC50: 794 nM
[1]; read-out: Ki, rNK1
  Ki: 270 nM
[2]
  IC50: 200 nM
  Ki: 100 nM
[3]
  logD7.4: 3.8

## CCCC[C@@H]1NC(=O)[C@H](Cc2ccccc2)NC(=O)CNC(=O)[C@H](NC(=O)[C@@H](N)Cc2ccc(O)cc2)CSSC[C@@H](C(=O)N[C@@H](Cc2c[nH]c3ccccc23)C(=O)NCc2cc(C(F)(F)F)cc(C(F)(F)F)c2)NC(=O)[C@@H]2CCCN2C1=O [TY035, [D-Cys^2, Cys^7]TY027] (HELM PEPTIDE1{Y.[dC].G.F.[Nle].P.C.W.[FC(F)(F)c1cc(CN[*:1])cc(C(F)(F)F)c1]}$PEPTIDE1,PEPTIDE1,2:R3-7:R3$$$V2.0; N-terminus assumed)
[4]
  IC50: 2.51 nM
[4]; read-out: Ki, hDOR, [3H]DPDPE
  Ki: 1.3 nM
[5]
  IC50: 158 nM
[5]; Table 20, ratio rMOR Ki / hDOR Ki
  Ki(μ)/Ki(δ): 61
[5]; read-out: Ki, rMOR, [3H]DAMGO
  Ki: 79 nM
[1]; Table 20, CHO cell membranes
  IC50: 100 nM
[1]; Table 20, species ratio
  Ki(hNK1)/Ki(rNK1): 30
[1]; Table 39, read-out: Affinity rNK1 (Ki; nM)
  Ki: 30 nM
[1]; read-out: Ki (nM), rNK1, [3H]Substance P, Table 20, CHO cell membranes
  Ki: 30 nM
[2]
  IC50: 0.2 nM
  Ki: 0.1 nM
[6]; Table 21, HN9.10 cell, read-out: EC50 (nM), hDOR
  EC50: 0.02 nM
[6]; Table 21, logarithm of EC50 (negative), HN9.10 cell, read-out: LogEC50, hDOR (converted)
  EC50: 0.0158 nM
[6]; Table 21, net total bound/basal binding × 100, read-out: Emax (%), hDOR
  Emax: 11%
[6]; Table 39, read-out: GTP binding hDOR EC50
  EC50: 0.02 nM
[6]; Table 39, read-out: GTP binding hDOR Emax
  Emax: 11%
[6]; net total bound/basal binding × 100, read-out: Emax, hDOR, [35S]GTP-γ-S binding
  Emax: < 20%
[7]; LogEC50, rMOR
  EC50: 39.8 nM
[7]; read-out: EC50 (nM), rMOR
  EC50: 36 nM
[7]; read-out: Emax (%), rMOR
  Emax: 41%
[7]; read-out: GTP binding rMOR EC50
  EC50: 36 nM
[7]; read-out: GTP binding rMOR Emax
  Emax: 39%
[8]; Table 22, electrically stimulated isolated tissue, read-out: Opioid agonist MVD (δ), IC50
  IC50: 85 ± 18 nM
[8]; Table 39, read-out: MVD opioid(delta) agonist (IC50; nM)
  IC50: 84.7 nM
[9]; Table 22, electrically stimulated isolated tissue, read-out: Opioid agonist GPI (μ), IC50
  IC50: 1000 ± 200 nM
[9]; Table 39, read-out: GPI/LMMP opioid(mu) agonist (IC50; nM)
  IC50: 1010 nM
[10]; Substance P antagonist, GPI, Ke (nM), Table 22, in the presence of 1 μM naloxone
  Kb: 2.2 ± 0.6 nM
[10]; Table 39, at 30 nM
  GPI/LMMP SP Agonist (IC50; nM): none
[11]
  half-life at 50 μg/mL: > 6 h
